# Laboratory results published in PubChem BioAssay (NCI).
#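 Test compounds were applied to cells in 96-well plates for 48 hours at 5 doses. GI50 marks 50% less growth. At the TGI there is no net growth.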
# Legend:
# Test in all cases: inhibition of tumour cell growth, NCI panel, 48 h
# 786-0 renal = system: 786-0 renal
# A498 renal = system: A498 renal
# A549 NSCLC = system: A549 NSCLC
# ACHN renal = system: ACHN renal
# BT-549 breast = system: BT-549 breast
# CAKI-1 renal = system: CAKI-1 renal
# CCRF-CEM leukemia = system: CCRF-CEM leukemia
# COLO 205 colon = system: COLO 205 colon
# DU-145 prostate = system: DU-145 prostate
# EKVX NSCLC = system: EKVX NSCLC
# HCC-2998 colon = system: HCC-2998 colon
# HCT-116 colon = system: HCT-116 colon
# HCT-15 colon = system: HCT-15 colon
# HL-60(TB) leukemia = system: HL-60(TB) leukemia
# HOP-62 NSCLC = system: HOP-62 NSCLC
# HS 578T breast = system: HS 578T breast
# HT29 colon = system: HT29 colon
# IGROV1 ovarian = system: IGROV1 ovarian
# K-562 leukemia = system: K-562 leukemia
# KM12 colon = system: KM12 colon
# LOX IMVI melanoma = system: LOX IMVI melanoma
# M14 melanoma = system: M14 melanoma
# MCF7 breast = system: MCF7 breast
# MDA-MB-231 breast = system: MDA-MB-231 breast
# MDA-MB-435 = system: MDA-MB-435
# MOLT-4 leukemia = system: MOLT-4 leukemia
# NCI-H226 lung = system: NCI-H226 lung
# NCI-H23 lung = system: NCI-H23 lung
structure (smiles),measurement,setting,value
CC(C)(O)/C=C/C(=O)[C@](C)(O)[C@H]1[C@H](O)C[C@@]2(C)[C@H]3CC=C4[C@@H](C[C@H](O)C(=O)C4(C)C)[C@]3(C)C(=O)C[C@]12C,GI50,786-0 renal,51.1 nM
same,TGI,786-0 renal,249 nM
same,GI50,A498 renal,17.7 nM
same,TGI,A498 renal,47.3 nM
same,GI50,A549 NSCLC,51.1 nM
same,TGI,A549 NSCLC,> 16700 nM
same,GI50,ACHN renal,53.7 nM
same,TGI,ACHN renal,> 16700 nM
same,GI50,BT-549 breast,16.1 nM
same,TGI,BT-549 breast,54.6 nM
same,GI50,CAKI-1 renal,13.7 nM
same,TGI,CAKI-1 renal,49.9 nM
same,GI50,CCRF-CEM leukemia,20.8 nM
same,TGI,CCRF-CEM leukemia,> 8450 nM
same,GI50,COLO 205 colon,27.7 nM
same,TGI,COLO 205 colon,> 16700 nM
same,GI50,DU-145 prostate,36.7 nM
same,TGI,DU-145 prostate,4300 nM
same,GI50,EKVX NSCLC,45.8 nM
same,TGI,EKVX NSCLC,> 16700 nM
same,GI50,HCC-2998 colon,118 nM
same,TGI,HCC-2998 colon,> 16700 nM
same,GI50,HCT-116 colon,24.3 nM
same,TGI,HCT-116 colon,7140 nM
same,GI50,HCT-15 colon,34.4 nM
same,TGI,HCT-15 colon,> 16700 nM
same,GI50,HL-60(TB) leukemia,203 nM
same,TGI,HL-60(TB) leukemia,1460 nM
same,GI50,HOP-62 NSCLC,81.8 nM
same,TGI,HOP-62 NSCLC,419 nM
same,GI50,HS 578T breast,52.9 nM
same,TGI,HS 578T breast,2730 nM
same,GI50,HT29 colon,25.8 nM
same,TGI,HT29 colon,> 16700 nM
same,GI50,IGROV1 ovarian,70.7 nM
same,TGI,IGROV1 ovarian,460 nM
same,GI50,K-562 leukemia,39.4 nM
same,TGI,K-562 leukemia,> 16700 nM
same,GI50,KM12 colon,113 nM
same,TGI,KM12 colon,> 16700 nM
same,GI50,LOX IMVI melanoma,180 nM
same,TGI,LOX IMVI melanoma,> 3520 nM
same,GI50,M14 melanoma,17.6 nM
same,TGI,M14 melanoma,1710 nM
same,GI50,MCF7 breast,31.5 nM
same,TGI,MCF7 breast,> 16700 nM
same,GI50,MDA-MB-231 breast,28.1 nM
same,TGI,MDA-MB-231 breast,307 nM
same,GI50,MDA-MB-435,22 nM
same,TGI,MDA-MB-435,5770 nM
same,GI50,MOLT-4 leukemia,1170 nM
same,TGI,MOLT-4 leukemia,16300 nM
same,GI50,NCI-H226 lung,29.6 nM
same,TGI,NCI-H226 lung,4660 nM
same,GI50,NCI-H23 lung,450 nM
